For 37 compounds, IC50 results are on record in patent US12649751B2 (Arcus Biosciences, Inc., priority 2022, dated 2026).

The structures appear in SMILES notation. Where two headings read alike, the source gives them in different places.

One assay has as its target HPK1 (Homo sapiens, UniProt Q92918). The assay is described as follows: HPK1 Biochemical Assay (ADP-Glo luminescence; low ATP 10 μM or high ATP 200 μM).
In assay [1] the test system is p-SLP-76 (Ser376) in Jurkat cells. Description: pSLP76 Cellular Assay (AlphaLISA SureFire Ultra p-SLP-76 (Ser376), anti-CD3 activated Jurkat cells). In kind it is cell-based. As to conditions: Homo sapiens, read-out: Cellular Potency. The protocol: pSLP76 cellular assay was performed using Jurkat cells and the AlphaLISA SureFire Ultra p-SLP-76 (Ser376) Assay Kit (PerkinElmer). Dose-response assays were performed in Greiner® Low Volume 384-well assay plates containing 200 nL of 22 serial 2-fold compound dilutions using Bravo and Echo. Jurkat cells were grown in RPMI-1640 supplemented with 10% FBS and PSG. The day prior to the assay, the cells were collected, and serum starved overnight in Opti-MEM. The day of the assay, the cells were collected and resuspended in HBSS. 100,000 cells/well were added to the compound plates and after a short spin, the plates were incubated at 37° C. for 1 h. The cells were activated by adding 10 μL of 0.025 mg/ml anti-CD3. Plates were then incubated at 37° C. for 45 min. Stimulation was terminated by adding […], followed by a brief centrifugation and 60 min of shaking at 300 rpm. Cell lysates (10 μL) were transferred to 384-well White Opti-plates and the samples were processed according to the manufacturer's directions. The fluorescence signal from pSLP76 was measured at 570 nm using Envision plate reader. IC50 values were determined by fitting the data to a standard 4-parameter logistic equation. The results are summarized in the Cellular Potency columns in Tables 4 and 5 below (Cellular Potency).

Where [2] appears, read: 2 nM HPK1, 10 μM ATP, read-out: Biochemical Potency (low ATP).
[3] abbreviates: Jurkat cells, anti-CD3 stimulation, pSLP76.
Setting [4] is: HPK1 ADP-Glo assay, low ATP (10 μM ATP, 2 nM HPK1), read-out: Biochemical Potency (low ATP).
The mark [5] stands for this setting: HPK1 ADP-Glo assay, high ATP (200 μM ATP, 5 nM HPK1), read-out: Biochemical Potency (high ATP).
Where [6] appears, read: pSLP76 (Ser376) AlphaLISA, anti-CD3 activated Jurkat cells.

Chain of HPK1 (Q92918 whole entry, species assumed): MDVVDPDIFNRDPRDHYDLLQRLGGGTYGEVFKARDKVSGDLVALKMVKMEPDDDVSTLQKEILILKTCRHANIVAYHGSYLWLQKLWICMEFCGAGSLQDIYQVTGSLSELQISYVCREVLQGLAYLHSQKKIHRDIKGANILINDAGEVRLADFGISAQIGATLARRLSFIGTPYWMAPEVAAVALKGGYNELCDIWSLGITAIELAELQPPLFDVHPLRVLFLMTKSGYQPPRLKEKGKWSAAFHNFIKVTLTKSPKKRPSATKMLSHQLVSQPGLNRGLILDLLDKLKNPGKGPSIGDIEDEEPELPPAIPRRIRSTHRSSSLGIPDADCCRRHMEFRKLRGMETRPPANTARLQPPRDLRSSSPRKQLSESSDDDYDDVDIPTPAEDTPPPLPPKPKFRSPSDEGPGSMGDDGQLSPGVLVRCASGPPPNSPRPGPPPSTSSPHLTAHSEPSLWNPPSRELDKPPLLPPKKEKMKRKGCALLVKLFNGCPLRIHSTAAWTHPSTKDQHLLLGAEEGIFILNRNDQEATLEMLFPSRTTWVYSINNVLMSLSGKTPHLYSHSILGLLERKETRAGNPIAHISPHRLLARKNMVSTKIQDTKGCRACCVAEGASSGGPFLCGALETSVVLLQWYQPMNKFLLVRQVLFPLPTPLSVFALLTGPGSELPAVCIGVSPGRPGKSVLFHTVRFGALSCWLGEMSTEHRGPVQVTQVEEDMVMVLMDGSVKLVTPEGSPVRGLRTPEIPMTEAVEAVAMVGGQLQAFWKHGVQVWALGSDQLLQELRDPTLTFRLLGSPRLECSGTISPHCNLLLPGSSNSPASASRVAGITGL

With `Cc1cccnc1-c1nc2cc(Nc3ccc(C4CCOC4)c(CN4CCCC4)n3)ncc2s1` (racemic) [Example 252, N-[2-(3-Methylpyridin-2-yl)-[1,3]thiazolo[5,4-c]pyridin-6-yl]-5-(oxolan-3-yl)-6-[(pyrrolidin-1-yl)methyl]pyridin-2-amine], the values for the IC50 (on HPK1 (setting [2]); in assay [1] (setting [3])) were under 100 nM and 100 to 1000 nM, respectively.

For `Cc1cccnc1-c1nc2cc(Nc3ccc([C@H]4CCOC4)c(CN4CCCC4)n3)ncc2s1` (single isomer, unassigned) [Example 258, N-[2-(3-Methylpyridin-2-yl)-[1,3]thiazolo[5,4-c]pyridin-6-yl]-5-[(3R or 3S)-oxolan-3-yl]-6-[(pyrrolidin-1-yl)methyl]pyridin-2-amine], the IC50 is under 100 nM on HPK1 (setting [2]) and 100 to 1000 nM in assay [1] (setting [3]).

`CN1C[C@@H]2C[C@H]1CN2c1cccc(Nc2cc3nc(-c4cccc(S(C)(=O)=O)c4)sc3cn2)n1` [Example 136, N-[2-(3-Methanesulfonylphenyl)-[1,3]thiazolo[5,4-c]pyridin-6-yl]-6-[(1S,4S)-5-methyl-2,5-diazabicyclo[2.2.1]heptan-2-yl]pyridin-2-amine]: the IC50 in assay [1] (setting [3]) lay within 100 to 1000 nM.

As to `Cc1ccc(Nc2cc3nc(-c4ncccc4C)sc3cn2)nc1OC[C@H](N)C(C)(C)C` [Example 180, 6-[(2R)-2-Amino-3,3-dimethylbutoxy]-5-methyl-N-[2-(3-methylpyridin-2-yl)-[1,3]thiazolo[5,4-c]pyridin-6-yl]pyridin-2-amine], in assay [1] (setting [3]), the IC50 is over 5000 nM.

Regarding `CNS(=O)(=O)c1cccc(-c2nc3cc(Nc4cccc(N5C[C@@H]6C[C@H]5CN6)n4)ncc3s2)c1` [Example 324], the IC50 on HPK1 (setting [4]) was under 100 nM.

With `CN(C)S(=O)(=O)c1cccc(-c2nc3cc(Nc4cccc(N5C[C@@H]6C[C@H]5CN6)n4)ncc3s2)c1` [Example 325], on HPK1 (setting [4]), the IC50 was under 100 nM.

`CS(=O)(=O)Nc1cccc(-c2nc3cc(Nc4cccc(N5C[C@@H]6C[C@H]5CN6)n4)ncc3s2)c1` [Example 326]: the IC50 at HPK1 (setting [4]) was under 100 nM.

Take `CN1C[C@@H]2C[C@H]1CN2c1nccc(Nc2cc3nc(-c4ccnc5c4cnn5C)sc3cn2)n1` [Example 411]: the IC50 at HPK1 (setting [4]) is under 100 nM.

For `CN1C[C@@H]2C[C@H]1CN2c1cncc(Nc2cc3nc(-c4cccc(C(=O)N5CC[C@H](F)C5)c4)sc3cn2)n1` [Example 417], the IC50 on HPK1 (setting [4]) is under 100 nM.

For the compound `CN1C[C@@H]2C[C@H]1CN2c1cncc(Nc2cc3nc(-c4cccc(C(C)(C)O)c4)sc3cn2)n1` [Example 418], the IC50 on HPK1 (setting [4]) was under 100 nM.

Take `CN1C[C@@H]2C[C@H]1CN2c1nccc(Nc2cc3nc(-c4cccc(C(C)(C)O)c4)sc3cn2)n1` [Example 419]: the IC50 at HPK1 (setting [4]) is under 100 nM.

Regarding `CN1C[C@@H]2C[C@H]1CN2c1nccc(Nc2cc3nc(-c4ncco4)sc3cn2)n1` [Example 420], the IC50 at HPK1 (setting [4]) was under 100 nM.

For the compound `CN1C[C@@H]2C[C@H]1CN2c1cncc(Nc2cc3nc(-c4ncco4)sc3cn2)n1` [Example 421], the IC50 on HPK1 (setting [4]) was under 100 nM.

`CN1C[C@@H]2C[C@H]1CN2c1nccc(Nc2cc3nc(N4CCc5cnccc5C4)sc3cn2)n1` [Example 426]: at HPK1 (setting [4]), the IC50 was in the range of 100 to 1000 nM.

For `CN1C[C@@H]2C[C@H]1CN2c1nccc(Nc2cc3nc(N4CCc5ccncc5C4)sc3cn2)n1` [Example 427], the IC50 at HPK1 (setting [4]) is 100 to 1000 nM.

Consider `CN1C[C@@H]2C[C@H]1CN2c1nccc(Nc2cc3nc(N4CCc5cccnc5C4)sc3cn2)n1` [Example 428], for which the IC50 on HPK1 (setting [4]) was 100 to 1000 nM.

With `c1cnn(-c2nc3cc(Nc4cc(C5CCOCC5)nc(N5C[C@@H]6C[C@H]5CN6)n4)ncc3s2)c1` [Example 437], the IC50 at HPK1 (setting [4]) is under 100 nM.

For `CN1C[C@@H]2C[C@H]1CN2c1nc(Nc2cc3nc(-c4ccnc(C(C)(C)O)c4)sc3cn2)cc(C2CCOCC2)n1` [Example 439], the IC50 at HPK1 (setting [4]) was under 100 nM.

For the compound `CC(C)(O)c1cc(-c2nc3cc(Nc4cc(C5CCOCC5)nc(N5C[C@@H]6C[C@H]5CN6)n4)ncc3s2)ccn1` [Example 441], the IC50 at HPK1 (setting [4]) is under 100 nM.

As for `CC(C)(O)c1cccc(-c2nc3cc(Nc4cc(C5CCOCC5)nc(N5C[C@@H]6C[C@H]5CN6)n4)ncc3s2)c1` [Example 442], the IC50 on HPK1 (setting [4]) was under 100 nM.

Take `CN1C[C@@H]2C[C@H]1CN2c1nccc(Nc2cc3nc(-c4ccnc(N5CCC[C@@H](O)C5)c4)sc3cn2)n1` [Example 459]: on HPK1 (setting [4]), the IC50 was under 100 nM.

Consider `CN1C[C@@H]2C[C@H]1CN2c1nccc(Nc2cc3nc(-c4ccnc(N5CC[C@@H](F)C5)c4)sc3cn2)n1` [Example 461], for which the IC50 on HPK1 (setting [4]) was under 100 nM.

On to `CN1C[C@@H]2C[C@H]1CN2c1nccc(Nc2cc3nc(-c4ccnc(N5CC[C@H](O)C5)c4)sc3cn2)n1` [Example 462], for which the IC50 on HPK1 (setting [4]) was under 100 nM.

Regarding `CN1C[C@@H]2C[C@H]1CN2c1nccc(Nc2cc3nc(-c4ccnc(N5CC[C@H](F)C5)c4)sc3cn2)n1` [Example 463], the IC50 on HPK1 (setting [4]) is under 100 nM.

Turning to `CN1C[C@@H]2C[C@H]1CN2c1nccc(Nc2cc3nc(-c4ccnc(N5CC[C@@H](O)C5)c4)sc3cn2)n1` [Example 465], the IC50 on HPK1 (setting [4]) is under 100 nM.

Turning to `CC[C@@H]1COCCN1c1cncc(-c2nc3cc(Nc4cc(C)nc(N5C[C@@H]6C[C@H]5CN6CC)n4)ncc3s2)c1` [Example 473], on HPK1 (setting [5]), the IC50 was under 100 nM.

As to `Cc1cc(Nc2cc3nc(-c4cccc(C(=O)N(C)C5CCCOC5)c4)sc3cn2)nc(N2C[C@@H]3C[C@H]2CN3CCO)n1` (stereo partly drawn) [Example 542], the IC50 in assay [1] (setting [6]) was under 100 nM.

Consider `Cc1cc(Nc2cc3nc(-c4cccc(C(=O)N(C)[C@@H]5CCCOC5)c4)sc3cn2)nc(N2C[C@@H]3C[C@H]2CN3CCO)n1` [Example 542], for which the IC50 at HPK1 (setting [5]) is under 100 nM.

For the compound `Cc1cc(Nc2cc3nc(-c4cccc(C(=O)N(C)CC5CCOC5)c4)sc3cn2)nc(N2C[C@@H]3C[C@H]2CN3CCO)n1` (stereo partly drawn) [Example 557], the IC50 in assay [1] (setting [6]) fell in the range of 100 to 1000 nM.

Consider `Cc1cc(Nc2cc3nc(-c4cccc(C(=O)N(C)C[C@@H]5CCOC5)c4)sc3cn2)nc(N2C[C@@H]3C[C@H]2CN3CCO)n1` [Example 557], for which the IC50 at HPK1 (setting [5]) is under 100 nM.

For the compound `Cc1cc(Nc2cc3nc(-c4cccc(C(=O)N(C)C5CCOC5)c4)sc3cn2)nc(N2C[C@@H]3C[C@H]2CN3CCO)n1` (stereo partly drawn) [Example 559], the IC50 in assay [1] (setting [6]) was 100 to 1000 nM.

Take `Cc1cc(Nc2cc3nc(-c4cccc(C(=O)N(C)[C@@H]5CCOC5)c4)sc3cn2)nc(N2C[C@@H]3C[C@H]2CN3CCO)n1` [Example 559]: the IC50 on HPK1 (setting [5]) is under 100 nM.

For `Cc1cccnc1-c1nc2cc(Nc3ccc4c(n3)[C@@](C)(N)CCC4)ncc2s1` [Example 578], the IC50 on HPK1 (setting [4]) was under 100 nM.

As for `Cc1ccnn1-c1nc2cc(Nc3ccc4c(n3)C(C)(N)CC4)ncc2s1` (stereo not drawn) [Example 579], at HPK1 (setting [4]), the IC50 was under 100 nM.

Take `Cc1ccnn1-c1nc2cc(Nc3ccc4c(n3)C(C)(N)CCC4)ncc2s1` (stereo not drawn) [Example 580]: at HPK1 (setting [4]), the IC50 is under 100 nM.

Consider `Cc1cccnc1-c1nc2cc(Nc3ccc4c(n3)[C@H](N)CC4)ncc2s1` [Example 582], for which the IC50 on HPK1 (setting [4]) is under 100 nM.

Turning to `Cc1cccnc1-c1nc2cc(Nc3ccc4c(n3)[C@@H](N)CCC4)ncc2s1` [Example 583], the IC50 on HPK1 (setting [4]) is under 100 nM.
